Here are results for two molecules from patent EP0643712B1, “SPIRO-OXETANES, PROCESS FOR PREPARING THE SAME AND MEDICAMENTS” (BOEHRINGER MANNHEIM GMBH, priority 1992, dated 1993).

The subject of assay [1] is humanen Thrombozyten. Briefly: Inhibition of collagen-induced arachidonic acid (3H-AA) release from platelets. In kind it is cell-based. The note with it: Homo sapiens, Platelet, read-out: AA in % (Hemmung der Collagen induzierten Arachidonsäurefreisetzung). The text has this:
Als weiterer Indikator einer PLA2-Inhibition gilt eine Hemmung der AA-Freisetzung aus Thrombozyten. Zu diesem Zweck werden die Thrombozyten mit ^3H-AA inkubiert. Diese zugegebene radioaktive Arachidonsäure baut sich in Membranphospholipide ein. Anschließend wird die thrombozytäre PLA2 über den Collagenrezeptor aktiviert und ^3H-AA so aus Phospholipen wieder ins Medium freigesetzt, wo sie quantifiziert werden kann.

Assay [2] has as its target T1, humane rekombinante Typ II PLA2 (Homo sapiens, UniProt P14555).
T1 sequence (P14555 21-144): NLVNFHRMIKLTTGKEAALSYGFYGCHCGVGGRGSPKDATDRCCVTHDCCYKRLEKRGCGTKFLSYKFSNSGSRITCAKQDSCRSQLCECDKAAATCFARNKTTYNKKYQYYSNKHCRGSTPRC
Briefly: In-vitro inhibition of PLA2 enzyme activity. In kind it is biochemical. The note with it: for inhibition at 1 µg/mL / inhibition at 10 µg/mL / inhibition at 100 µg/mL: read-out: PLA2 in % (Hemmung der Enzymaktivität); for PLA2 in % (Hemmung der Enzymaktivität) / inhibition at 100 µg/mL: 100 µg/ml. The text has this: Als typischer Vertreter einer PLA2 wurde die humane rekombinante Typ-II-PLA2 (= synoviale PLA2) zur Testung eingesetzt.
Die Tabelle 1 enthält die prozentuale in-vitro Hemmung dieses Enzyms durch die Verbindung des Beispiels 1, einen Spiro-Oxetan-Vertreter. Das Enzym wird dosisabhängig bis zu 93 % inhibiert.

The structures appear in SMILES notation.

In the case of `O=C1C=CC2(C=C1)CC1(CCC(=O)O1)O2` (centres unmarked) [Bsp. 1, 1,6-Dioxadispiro[4.1.5.1]trideca-8,11-dien-2,10-dion], in assay [1], the inhibition at 1 µg/mL was 42%, the inhibition at 10 µg/mL is 86% and the inhibition at 100 µg/mL was found to be 100%. In assay [2], the inhibition at 1 µg/mL came out at 11%, the inhibition at 10 µg/mL is 37%, the “PLA2 in % (Hemmung der Enzymaktivität)” value is 93% and the inhibition at 100 µg/mL is at most 93%.

`COc1ccc2c(c1)c(CC(=O)O)c(C)n2C(=O)c1ccc(Cl)cc1` [Indomethacin]: in assay [1], the inhibition at 1 µg/mL was determined as 6%, the inhibition at 10 µg/mL was 18% and the inhibition at 100 µg/mL amounted to 23%. Further, in assay [2], the inhibition at 1 µg/mL was determined as 0%, the inhibition at 10 µg/mL was 10%, the “PLA2 in % (Hemmung der Enzymaktivität)” value is given as 52% and the inhibition at 100 µg/mL turned out to be 52%.
